Where a SMILES comes first, the peptide text is derived from it.
System: T2 cell lines preincubated with peptide
Test: Recognition of modified peptides by natural epitope (M9-2, G9-154, G9-209, G9-280) reactive T-cells, 51Cr release on peptide-pulsed T2 cells (Example 5)
Format: cell-based, human
Protocol: Assessment of antigen recognition by CTL. ^51Cr release cytotoxic assays were performed to detect the recognition of peptide and melanoma cells by CTL. To analyze peptide recognition, T2 cell lines were preincubated for 2 h at 37° C. with 1 ug/ml peptide, washed and used as target cells in a ^51Cr release cytotoxic assay. The melanoma lines 624mel was established in our laboratory (See Example 1).
In order to make more immunogenic peptides for induction of anti-melanoma T-cells than natural melanoma epitopes, a variety of peptides in which at least 1 amino acid was changed based on consensus motifs in peptides binding to a specific MHC Class I allele Falk, et al. (1991) Nature 351:290; Kubo et al. (1994) J. Immunol 152:3913; Parker, K. et al. (1992) Journal of Immunology 149:3580; Ruppert, J. et al. (1993) Cell 74:929-937) (Tables 14, 15, 16, and 17). […] By changing amino acid at the 1st, 2nd, 3rd or 9th positions which are important for HLA-A2 binding to the peptide, but less important for recognition by T-cell receptors, artificial peptides which can bind to HLA-A2.1 with higher affinity and still be recognized by natural epitope specific T-cells may be generated.

Row | SMILES | Recognition by M9-2 reactive T-cell | Recognition by G9-209 reactive T-cell | Recognition by G9-154 reactive T-cell
1 | CC[C@H](C)[C@H](NC(=O)CNC(=O)[C@@H](NC(=O)[C@H](Cc1c[nH]c2ccccc12)NC(=O)[C@H](C)NC(=O)[C@H](C)N)[C@@H](C)CC)C(=O)N[C@@H](CC(C)C)C(=O)N[C@H](C(=O)N[C@H](C(=O)O)C(C)C)[C@@H](C)O [M9-2-3W] | − |  | 
2 | CC[C@H](C)[C@H](NC(=O)CNC(=O)[C@@H](NC(=O)[C@H](Cc1c[nH]c2ccccc12)NC(=O)[C@H](CC(C)C)NC(=O)[C@H](C)N)[C@@H](C)CC)C(=O)N[C@@H](CC(C)C)C(=O)N[C@H](C(=O)N[C@H](C(=O)O)C(C)C)[C@@H](C)O [M9-2-2L3W] | − |  | 
3 | CC[C@H](C)[C@H](N)C(=O)N[C@@H](CC(C)C)C(=O)N[C@@H](CO)C(=O)N[C@@H](CCC(N)=O)C(=O)N[C@H](C(=O)N1CCC[C@H]1C(=O)N[C@@H](Cc1ccccc1)C(=O)N[C@@H](CO)C(=O)N[C@H](C(=O)O)C(C)C)C(C)C [G9-209-2L3S] (H-ILSQVPFSV-OH; N-terminus and C-terminus assumed) |  | − | 
4 | CC[C@H](C)[C@H](NC(=O)CNC(=O)[C@H](CCSC)NC(=O)[C@@H](N)CCCCN)C(=O)NCC(=O)N[C@H](C(=O)N[C@@H](CC(C)C)C(=O)N[C@H](C(=O)N[C@H](C(=O)O)C(C)C)[C@@H](C)O)[C@@H](C)CC [M9-2-1K2M] | − |  | 
5 | CC[C@H](C)[C@H](N)C(=O)N[C@@H](CC(C)C)C(=O)N[C@@H](C)C(=O)N[C@@H](CCC(N)=O)C(=O)N[C@H](C(=O)N1CCC[C@H]1C(=O)N[C@@H](Cc1ccccc1)C(=O)N[C@@H](CO)C(=O)N[C@H](C(=O)O)C(C)C)C(C)C [G9-209-2L3A] |  | − | 
6 | CC[C@H](C)[C@H](NC(=O)CNC(=O)[C@H](C)NC(=O)[C@@H](N)Cc1c[nH]c2ccccc12)C(=O)NCC(=O)N[C@H](C(=O)N[C@@H](CC(C)C)C(=O)N[C@H](C(=O)N[C@H](C(=O)O)C(C)C)[C@@H](C)O)[C@@H](C)CC [M9-2-1W] | + (+, recognized) |  | 
7 | CC[C@H](C)[C@H](N)C(=O)N[C@@H](CC(C)C)C(=O)N[C@@H](Cc1ccccc1)C(=O)N[C@@H](CCC(N)=O)C(=O)N[C@H](C(=O)N1CCC[C@H]1C(=O)N[C@@H](Cc1ccccc1)C(=O)N[C@@H](CO)C(=O)N[C@H](C(=O)O)C(C)C)C(C)C [G9-209-2L3F] |  | − | 
8 | CC[C@H](C)[C@H](N)C(=O)N[C@@H](CC(C)C)C(=O)N[C@@H](Cc1ccc(O)cc1)C(=O)N[C@@H](CCC(N)=O)C(=O)N[C@H](C(=O)N1CCC[C@H]1C(=O)N[C@@H](Cc1ccccc1)C(=O)N[C@@H](CO)C(=O)N[C@H](C(=O)O)C(C)C)C(C)C [G9-209-2L3Y] (H-ILYQVPFSV-OH; N-terminus and C-terminus assumed) |  | − | 
9 | CC[C@H](C)[C@H](N)C(=O)N[C@H](C(=O)N[C@@H](Cc1ccccc1)C(=O)N[C@@H](CCC(N)=O)C(=O)N[C@H](C(=O)N1CCC[C@H]1C(=O)N[C@@H](Cc1ccccc1)C(=O)N[C@@H](CO)C(=O)N[C@H](C(=O)O)C(C)C)C(C)C)[C@@H](C)O [G9-209-3F] (H-ITFQVPFSV-OH; N-terminus and C-terminus assumed) |  | − | 
10 | CC[C@H](C)[C@H](N)C(=O)N[C@H](C(=O)N[C@@H](Cc1ccc(O)cc1)C(=O)N[C@@H](CCC(N)=O)C(=O)N[C@H](C(=O)N1CCC[C@H]1C(=O)N[C@@H](Cc1ccccc1)C(=O)N[C@@H](CO)C(=O)N[C@H](C(=O)O)C(C)C)C(C)C)[C@@H](C)O [G9-209-3Y] (H-ITYQVPFSV-OH; N-terminus and C-terminus assumed) |  | − | 
11 | CC[C@H](C)[C@H](N)C(=O)N[C@@H](CC(C)C)C(=O)N[C@@H](CCSC)C(=O)N[C@@H](CCC(N)=O)C(=O)N[C@H](C(=O)N1CCC[C@H]1C(=O)N[C@@H](Cc1ccccc1)C(=O)N[C@@H](CO)C(=O)N[C@H](C(=O)O)C(C)C)C(C)C [G9-209-2L3M] |  | − | 
12 | CC[C@H](C)[C@H](NC(=O)CNC(=O)[C@H](CC(C)C)NC(=O)[C@@H](N)Cc1ccccc1)C(=O)NCC(=O)N[C@H](C(=O)N[C@@H](CC(C)C)C(=O)N[C@H](C(=O)N[C@H](C(=O)O)C(C)C)[C@@H](C)O)[C@@H](C)CC [M9-2-1F2L] | − |  | 
13 | CC[C@H](C)[C@H](N)C(=O)N[C@H](C(=O)N[C@@H](CO)C(=O)N[C@@H](CCC(N)=O)C(=O)N[C@H](C(=O)N1CCC[C@H]1C(=O)N[C@@H](Cc1ccccc1)C(=O)N[C@@H](CO)C(=O)N[C@H](C(=O)O)C(C)C)C(C)C)[C@@H](C)O [G9-209-3S] |  | − | 
14 | CC(C)[C@H](NC(=O)[C@H](CO)NC(=O)[C@H](Cc1ccccc1)NC(=O)[C@@H]1CCCN1C(=O)[C@@H](NC(=O)[C@H](CCC(N)=O)NC(=O)[C@H](CC(=O)O)NC(=O)[C@@H](NC(=O)[C@@H](N)Cc1c[nH]c2ccccc12)[C@@H](C)O)C(C)C)C(=O)O [G9-209-1W] (H-WTDQVPFSV-OH; N-terminus and C-terminus assumed) |  | + (+, recognized) | 
15 | CC[C@H](C)[C@H](NC(=O)CNC(=O)[C@H](CC(C)C)NC(=O)[C@@H](N)CCCCN)C(=O)NCC(=O)N[C@H](C(=O)N[C@@H](CC(C)C)C(=O)N[C@H](C(=O)N[C@H](C(=O)O)C(C)C)[C@@H](C)O)[C@@H](C)CC [M9-2-1K2L] | − |  | 
16 | CC[C@H](C)[C@H](N)C(=O)N[C@H](C(=O)N[C@@H](C)C(=O)N[C@@H](CCC(N)=O)C(=O)N[C@H](C(=O)N1CCC[C@H]1C(=O)N[C@@H](Cc1ccccc1)C(=O)N[C@@H](CO)C(=O)N[C@H](C(=O)O)C(C)C)C(C)C)[C@@H](C)O [G9-209-3A] |  | − | 
17 | CC[C@H](C)[C@H](NC(=O)CNC(=O)[C@@H](NC(=O)[C@H](Cc1ccccc1)NC(=O)[C@H](C)NC(=O)[C@H](C)N)[C@@H](C)CC)C(=O)N[C@@H](CC(C)C)C(=O)N[C@H](C(=O)N[C@H](C(=O)O)C(C)C)[C@@H](C)O [M9-2-3F] | − |  | 
18 | CC[C@H](C)[C@H](NC(=O)CNC(=O)[C@H](CC(C)C)NC(=O)[C@@H](N)Cc1c[nH]c2ccccc12)C(=O)NCC(=O)N[C@H](C(=O)N[C@@H](CC(C)C)C(=O)N[C@H](C(=O)N[C@H](C(=O)O)C(C)C)[C@@H](C)O)[C@@H](C)CC [M9-2-1W2L] | − |  | 
19 | CC[C@H](C)[C@H](NC(=O)CNC(=O)[C@@H](NC(=O)[C@H](Cc1ccc(O)cc1)NC(=O)[C@H](CC(C)C)NC(=O)[C@H](C)N)[C@@H](C)CC)C(=O)N[C@@H](CC(C)C)C(=O)N[C@H](C(=O)N[C@H](C(=O)O)C(C)C)[C@@H](C)O [M9-2-2L3Y] | − |  | 
20 | CC[C@H](C)[C@H](NC(=O)CNC(=O)[C@H](C)NC(=O)[C@@H](N)Cc1ccc(O)cc1)C(=O)NCC(=O)N[C@H](C(=O)N[C@@H](CC(C)C)C(=O)N[C@H](C(=O)N[C@H](C(=O)O)C(C)C)[C@@H](C)O)[C@@H](C)CC [M9-2-1Y] | − |  | 
21 | CC[C@H](C)[C@H](NC(=O)CNC(=O)[C@H](CCSC)NC(=O)[C@H](C)N)C(=O)NCC(=O)N[C@H](C(=O)N[C@@H](CC(C)C)C(=O)N[C@H](C(=O)N[C@H](C(=O)O)C(C)C)[C@@H](C)O)[C@@H](C)CC [M9-2-2M] | − |  | 
22 | CC[C@H](C)[C@H](NC(=O)CNC(=O)[C@H](CC(C)C)NC(=O)[C@@H](N)Cc1ccc(O)cc1)C(=O)NCC(=O)N[C@H](C(=O)N[C@@H](CC(C)C)C(=O)N[C@H](C(=O)N[C@H](C(=O)O)C(C)C)[C@@H](C)O)[C@@H](C)CC [M9-2-1Y2L] | − |  | 
23 | CC[C@H](C)[C@H](NC(=O)CNC(=O)[C@@H](NC(=O)[C@H](Cc1ccccc1)NC(=O)[C@H](CC(C)C)NC(=O)[C@H](C)N)[C@@H](C)CC)C(=O)N[C@@H](CC(C)C)C(=O)N[C@H](C(=O)N[C@H](C(=O)O)C(C)C)[C@@H](C)O [M9-2-2L3F] | − |  | 
24 | CC[C@H](C)[C@H](NC(=O)CNC(=O)[C@@H](NC(=O)[C@H](C)N)[C@@H](C)CC)C(=O)NCC(=O)N[C@H](C(=O)N[C@@H](CC(C)C)C(=O)N[C@H](C(=O)N[C@H](C(=O)O)C(C)C)[C@@H](C)O)[C@@H](C)CC [M9-2-2I] | − |  | 
25 | CC(C)C[C@H](NC(=O)[C@H](C)N)C(=O)N[C@@H](Cc1c[nH]c2ccccc12)C(=O)NCC(=O)N[C@@H](CCC(N)=O)C(=O)N[C@@H](Cc1ccc(O)cc1)C(=O)N[C@@H](Cc1c[nH]c2ccccc12)C(=O)N[C@@H](CCC(N)=O)C(=O)N[C@H](C(=O)O)C(C)C [G9-154-1A2L] (H-ALWGQYWQV-OH; N-terminus and C-terminus assumed) |  |  | + (+, recognized)
26 | CC[C@H](C)[C@H](N)C(=O)N[C@@H](CC(C)C)C(=O)N[C@@H](Cc1c[nH]c2ccccc12)C(=O)N[C@@H](CCC(N)=O)C(=O)N[C@H](C(=O)N1CCC[C@H]1C(=O)N[C@@H](Cc1ccccc1)C(=O)N[C@@H](CO)C(=O)N[C@H](C(=O)O)C(C)C)C(C)C [G9-209-2L3W] (H-ILWQVPFSV-OH; N-terminus and C-terminus assumed) |  | − | 
27 | CC[C@H](C)[C@H](N)C(=O)N[C@H](C(=O)N[C@@H](CCSC)C(=O)N[C@@H](CCC(N)=O)C(=O)N[C@H](C(=O)N1CCC[C@H]1C(=O)N[C@@H](Cc1ccccc1)C(=O)N[C@@H](CO)C(=O)N[C@H](C(=O)O)C(C)C)C(C)C)[C@@H](C)O [G9-209-3M] (H-ITMQVPFSV-OH; N-terminus and C-terminus assumed) |  | − | 

From patent US8273724B2, “Melanoma antigens and their use in diagnostic and therapeutic methods” (The United States of America, as represented by the …, priority 1994, dated 2012)
